Measurements taken from the NIST ThermoML archive (doi:10.1021/acs.jced.8b00358).
± gives the expanded uncertainty stated by the source.

Legend:
[1] = 83 kPa, Liquid; for speed of sound: Frequency=3 MHz, Single path-length method; for mass density: Vibrating tube method
[2] = molar heat capacity at constant pressure; details: 83 kPa, Liquid, DSC

Compound: CCCCCCCCC(=O)OCC(COC(=O)CCCCCCCC)(COC(=O)CCCCCCCC)COC(=O)CCCCCCCC [pentaerythritol tetranonanoate]
- speed of sound ([1]; 283.15 K): 1438.9 ± 7.2 m/s
- mass density ([1]; 283.15 K): 961.49 ± 13 kg/m3
- speed of sound ([1]; 288.15 K): 1421.7 ± 7.2 m/s
- mass density ([1]; 288.15 K): 957.85 ± 13 kg/m3
- speed of sound ([1]; 293.15 K): 1404.7 ± 7.2 m/s
- mass density ([1]; 293.15 K): 954.2 ± 13 kg/m3
- speed of sound ([1]; 298.15 K): 1387.9 ± 7.2 m/s
- mass density ([1]; 298.15 K): 950.58 ± 13 kg/m3
- speed of sound ([1]; 303.15 K): 1371.5 ± 7.2 m/s
- mass density ([1]; 303.15 K): 946.97 ± 13 kg/m3
- speed of sound ([1]; 308.15 K): 1355.2 ± 7.2 m/s
- mass density ([1]; 308.15 K): 943.37 ± 13 kg/m3
- speed of sound ([1]; 313.15 K): 1339.1 ± 7.2 m/s
- mass density ([1]; 313.15 K): 939.77 ± 13 kg/m3
- speed of sound ([1]; 318.15 K): 1323.2 ± 7.2 m/s
- mass density ([1]; 318.15 K): 936.18 ± 12 kg/m3
- speed of sound ([1]; 323.15 K): 1307.5 ± 7.2 m/s
- mass density ([1]; 323.15 K): 932.6 ± 12 kg/m3
- speed of sound ([1]; 328.15 K): 1292 ± 7.2 m/s
- mass density ([1]; 328.15 K): 929.02 ± 12 kg/m3
- speed of sound ([1]; 333.15 K): 1276.6 ± 7.2 m/s
- mass density ([1]; 333.15 K): 925.45 ± 12 kg/m3
- speed of sound ([1]; 338.15 K): 1261.4 ± 7.2 m/s
- mass density ([1]; 338.15 K): 921.88 ± 12 kg/m3
- speed of sound ([1]; 343.15 K): 1246.4 ± 7.2 m/s
- mass density ([1]; 343.15 K): 918.32 ± 12 kg/m3
- molar heat capacity at constant pressure ([2]; 313.13 K): 1352.3 ± 54 J/K/mol
- molar heat capacity at constant pressure ([2]; 314.13 K): 1354.3 ± 54 J/K/mol
- molar heat capacity at constant pressure ([2]; 315.14 K): 1355.7 ± 54 J/K/mol
- molar heat capacity at constant pressure ([2]; 316.13 K): 1357.8 ± 54 J/K/mol
- molar heat capacity at constant pressure ([2]; 317.14 K): 1359.9 ± 55 J/K/mol
- molar heat capacity at constant pressure ([2]; 318.13 K): 1362 ± 54 J/K/mol
- molar heat capacity at constant pressure ([2]; 319.13 K): 1363.4 ± 54 J/K/mol
- molar heat capacity at constant pressure ([2]; 320.14 K): 1365.5 ± 55 J/K/mol
- molar heat capacity at constant pressure ([2]; 321.13 K): 1367.6 ± 55 J/K/mol
- molar heat capacity at constant pressure ([2]; 322.13 K): 1369 ± 55 J/K/mol
- molar heat capacity at constant pressure ([2]; 323.14 K): 1371.1 ± 55 J/K/mol
- molar heat capacity at constant pressure ([2]; 324.13 K): 1373.2 ± 55 J/K/mol
- molar heat capacity at constant pressure ([2]; 325.13 K): 1374.6 ± 55 J/K/mol
- molar heat capacity at constant pressure ([2]; 326.13 K): 1376.6 ± 56 J/K/mol
- molar heat capacity at constant pressure ([2]; 327.13 K): 1378.7 ± 56 J/K/mol
- molar heat capacity at constant pressure ([2]; 328.14 K): 1380.8 ± 55 J/K/mol
- molar heat capacity at constant pressure ([2]; 329.14 K): 1382.9 ± 56 J/K/mol
- molar heat capacity at constant pressure ([2]; 330.13 K): 1384.3 ± 55 J/K/mol
- molar heat capacity at constant pressure ([2]; 331.13 K): 1386.4 ± 55 J/K/mol
- molar heat capacity at constant pressure ([2]; 332.13 K): 1388.5 ± 56 J/K/mol
- molar heat capacity at constant pressure ([2]; 333.13 K): 1390.6 ± 56 J/K/mol
- molar heat capacity at constant pressure ([2]; 334.13 K): 1392.7 ± 56 J/K/mol
- molar heat capacity at constant pressure ([2]; 335.13 K): 1394.8 ± 56 J/K/mol
- molar heat capacity at constant pressure ([2]; 336.14 K): 1396.9 ± 56 J/K/mol
- molar heat capacity at constant pressure ([2]; 337.13 K): 1399 ± 56 J/K/mol
- molar heat capacity at constant pressure ([2]; 338.13 K): 1401 ± 56 J/K/mol
- molar heat capacity at constant pressure ([2]; 339.13 K): 1403.1 ± 56 J/K/mol
- molar heat capacity at constant pressure ([2]; 340.13 K): 1405.2 ± 56 J/K/mol
- molar heat capacity at constant pressure ([2]; 341.14 K): 1406.6 ± 56 J/K/mol
- molar heat capacity at constant pressure ([2]; 342.14 K): 1408.7 ± 56 J/K/mol
- molar heat capacity at constant pressure ([2]; 343.13 K): 1410.8 ± 56 J/K/mol
- molar heat capacity at constant pressure ([2]; 344.13 K): 1412.9 ± 56 J/K/mol
- molar heat capacity at constant pressure ([2]; 345.14 K): 1415 ± 56 J/K/mol
- molar heat capacity at constant pressure ([2]; 346.13 K): 1417.1 ± 56 J/K/mol
- molar heat capacity at constant pressure ([2]; 347.13 K): 1419.2 ± 56 J/K/mol
- molar heat capacity at constant pressure ([2]; 348.13 K): 1421.3 ± 56 J/K/mol
- molar heat capacity at constant pressure ([2]; 349.13 K): 1423.4 ± 56 J/K/mol
- molar heat capacity at constant pressure ([2]; 350.14 K): 1425.4 ± 56 J/K/mol
- molar heat capacity at constant pressure ([2]; 351.13 K): 1427.5 ± 56 J/K/mol
- molar heat capacity at constant pressure ([2]; 352.13 K): 1429.6 ± 56 J/K/mol
- molar heat capacity at constant pressure ([2]; 353.14 K): 1431.7 ± 57 J/K/mol
- molar heat capacity at constant pressure ([2]; 354.13 K): 1433.8 ± 57 J/K/mol
- molar heat capacity at constant pressure ([2]; 355.14 K): 1435.9 ± 57 J/K/mol
- molar heat capacity at constant pressure ([2]; 356.13 K): 1438 ± 57 J/K/mol
- molar heat capacity at constant pressure ([2]; 357.13 K): 1440.1 ± 57 J/K/mol
- molar heat capacity at constant pressure ([2]; 358.13 K): 1442.2 ± 57 J/K/mol
- molar heat capacity at constant pressure ([2]; 359.13 K): 1444.3 ± 57 J/K/mol
- molar heat capacity at constant pressure ([2]; 360.13 K): 1446.4 ± 57 J/K/mol
- molar heat capacity at constant pressure ([2]; 361.13 K): 1448.4 ± 57 J/K/mol
- molar heat capacity at constant pressure ([2]; 362.13 K): 1450.5 ± 57 J/K/mol
- molar heat capacity at constant pressure ([2]; 363.13 K): 1452.6 ± 57 J/K/mol
- molar heat capacity at constant pressure ([2]; 364.13 K): 1454.7 ± 58 J/K/mol
- molar heat capacity at constant pressure ([2]; 365.13 K): 1456.8 ± 58 J/K/mol
- molar heat capacity at constant pressure ([2]; 366.13 K): 1458.9 ± 58 J/K/mol
- molar heat capacity at constant pressure ([2]; 367.13 K): 1461 ± 58 J/K/mol
- molar heat capacity at constant pressure ([2]; 368.13 K): 1463.1 ± 58 J/K/mol
- molar heat capacity at constant pressure ([2]; 369.13 K): 1465.2 ± 58 J/K/mol
- molar heat capacity at constant pressure ([2]; 370.13 K): 1467.3 ± 58 J/K/mol
- molar heat capacity at constant pressure ([2]; 371.13 K): 1469.4 ± 58 J/K/mol
- molar heat capacity at constant pressure ([2]; 372.13 K): 1471.4 ± 58 J/K/mol
- molar heat capacity at constant pressure ([2]; 373.13 K): 1473.5 ± 58 J/K/mol
- molar heat capacity at constant pressure ([2]; 374.14 K): 1475.6 ± 59 J/K/mol
- molar heat capacity at constant pressure ([2]; 375.14 K): 1477.7 ± 59 J/K/mol
- molar heat capacity at constant pressure ([2]; 376.13 K): 1479.8 ± 59 J/K/mol
- molar heat capacity at constant pressure ([2]; 377.13 K): 1481.9 ± 59 J/K/mol
- molar heat capacity at constant pressure ([2]; 378.13 K): 1484 ± 59 J/K/mol
- molar heat capacity at constant pressure ([2]; 379.13 K): 1486.1 ± 59 J/K/mol
- molar heat capacity at constant pressure ([2]; 380.14 K): 1488.2 ± 59 J/K/mol
- molar heat capacity at constant pressure ([2]; 381.13 K): 1491 ± 59 J/K/mol
- molar heat capacity at constant pressure ([2]; 382.13 K): 1493.1 ± 59 J/K/mol
- molar heat capacity at constant pressure ([2]; 383.13 K): 1495.1 ± 59 J/K/mol
- molar heat capacity at constant pressure ([2]; 384.13 K): 1497.2 ± 59 J/K/mol
- molar heat capacity at constant pressure ([2]; 385.13 K): 1499.3 ± 59 J/K/mol
- molar heat capacity at constant pressure ([2]; 386.13 K): 1501.4 ± 59 J/K/mol
- molar heat capacity at constant pressure ([2]; 387.13 K): 1503.5 ± 59 J/K/mol
- molar heat capacity at constant pressure ([2]; 388.13 K): 1505.6 ± 59 J/K/mol
- molar heat capacity at constant pressure ([2]; 389.13 K): 1507.7 ± 59 J/K/mol
- molar heat capacity at constant pressure ([2]; 390.13 K): 1509.8 ± 59 J/K/mol
- molar heat capacity at constant pressure ([2]; 391.13 K): 1511.9 ± 59 J/K/mol
- molar heat capacity at constant pressure ([2]; 392.13 K): 1514 ± 59 J/K/mol
- molar heat capacity at constant pressure ([2]; 393.13 K): 1516.1 ± 59 J/K/mol
- molar heat capacity at constant pressure ([2]; 394.13 K): 1518.1 ± 59 J/K/mol
- molar heat capacity at constant pressure ([2]; 395.14 K): 1520.2 ± 60 J/K/mol
- molar heat capacity at constant pressure ([2]; 396.13 K): 1523 ± 60 J/K/mol
- molar heat capacity at constant pressure ([2]; 397.13 K): 1525.1 ± 60 J/K/mol
- molar heat capacity at constant pressure ([2]; 398.13 K): 1527.2 ± 60 J/K/mol
- molar heat capacity at constant pressure ([2]; 399.13 K): 1529.3 ± 60 J/K/mol
- molar heat capacity at constant pressure ([2]; 400.13 K): 1531.4 ± 60 J/K/mol
- molar heat capacity at constant pressure ([2]; 401.13 K): 1533.5 ± 60 J/K/mol
- molar heat capacity at constant pressure ([2]; 402.14 K): 1535.6 ± 60 J/K/mol
- molar heat capacity at constant pressure ([2]; 403.13 K): 1537.7 ± 60 J/K/mol
- molar heat capacity at constant pressure ([2]; 404.14 K): 1539.8 ± 60 J/K/mol
- molar heat capacity at constant pressure ([2]; 405.13 K): 1541.8 ± 60 J/K/mol
- molar heat capacity at constant pressure ([2]; 406.13 K): 1543.9 ± 60 J/K/mol
- molar heat capacity at constant pressure ([2]; 407.13 K): 1546 ± 60 J/K/mol
- molar heat capacity at constant pressure ([2]; 408.13 K): 1548.1 ± 60 J/K/mol
- molar heat capacity at constant pressure ([2]; 409.13 K): 1550.9 ± 61 J/K/mol
- molar heat capacity at constant pressure ([2]; 410.14 K): 1553 ± 61 J/K/mol
- molar heat capacity at constant pressure ([2]; 411.13 K): 1554.4 ± 61 J/K/mol
- molar heat capacity at constant pressure ([2]; 412.14 K): 1557.2 ± 61 J/K/mol
